Test results: article PMC2845980 (Bioorganic & medicinal chemistry, 2010)
Read-outs that look alike come from different tables or passages of the source.

Tests used:
[1] = target: tgDHFR (Toxoplasma gondii, UniProt Q07422); assay: Spectrophotometric DHFR inhibition assay, T. gondii enzyme; assay type: biochemical; details: IC50 rlDHFR / IC50 tgDHFR
[2] = Solubility; assay type: physicochemical; details: qualitative statement
[3] = tested on: T. gondii
[4] = first study, i.p. 50 mg/kg/day, mouse
[5] = second study, i.p. 50 mg/kg/day, mouse

tgDHFR, sequence (Q07422 whole entry): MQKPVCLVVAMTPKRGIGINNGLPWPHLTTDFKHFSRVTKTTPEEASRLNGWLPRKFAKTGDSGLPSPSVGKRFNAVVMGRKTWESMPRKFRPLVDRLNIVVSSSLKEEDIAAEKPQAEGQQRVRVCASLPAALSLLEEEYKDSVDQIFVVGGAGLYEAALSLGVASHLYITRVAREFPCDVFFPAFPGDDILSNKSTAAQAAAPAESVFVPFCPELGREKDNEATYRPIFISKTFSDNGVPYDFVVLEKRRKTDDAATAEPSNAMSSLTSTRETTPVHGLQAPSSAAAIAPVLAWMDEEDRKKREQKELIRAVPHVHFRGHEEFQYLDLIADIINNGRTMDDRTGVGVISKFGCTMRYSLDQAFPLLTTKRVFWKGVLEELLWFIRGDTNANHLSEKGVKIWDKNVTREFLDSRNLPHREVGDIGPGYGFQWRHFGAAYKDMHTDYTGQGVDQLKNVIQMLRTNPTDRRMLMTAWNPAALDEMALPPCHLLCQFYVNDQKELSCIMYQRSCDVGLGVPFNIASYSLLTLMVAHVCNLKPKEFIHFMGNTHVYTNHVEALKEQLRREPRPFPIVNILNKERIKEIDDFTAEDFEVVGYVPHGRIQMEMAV

SMILES: Cc1c(Sc2ccc3ccccc3c2)[nH]c2nc(N)nc(N)c12 [Compound 90, 2,4-Diamino-5-methyl-6-(2-naphthylthio)pyrrolo[2,3-d]pyrimidine]
- selectivity ratio rl/tg [1]: 5

SMILES: Cc1cccc(C)c1Sc1[nH]c2nc(N)nc(N)c2c1C [Compound 91, 2,4-Diamino-5-methyl-6-(2′,6′-dimethylphenylthio)pyrrolo[2,3-d]pyrimidine]
- solubility properties [2]: poor solubility properties
- Mean counts of T. gondii per 1000x field in peritoneal harvest [3, 4]: 12.5 counts per 1000x field
- Median counts of T. gondii per 1000x field in peritoneal harvest [3, 4]: 7.0 counts per 1000x field
- gross toxicity in treated mice ([3]; mouse, in vivo, ip, 50 mg/kg/day): no gross evidence of toxicity
- reduction of the median counts per 1000x field versus control ([3]; second study, i.p. 50 mg/kg/day): more than two-fold
- Mean counts of T. gondii per 1000x field in peritoneal harvest [3, 5]: 8.9 counts per 1000x field
- Median counts of T. gondii per 1000x field in peritoneal harvest [3, 5]: 5.0 counts per 1000x field

SMILES: Cc1cccc(C)c1Sc1[nH]c2nc(N)nc(N)c2c1C.Cl [Compound 95, 2,4-Diamino-5-methyl-6-(2′,6′-dimethylphenylthio)pyrrolo[2,3-d]pyrimidine hydrochloride salt]
- solubility properties [2]: more soluble
- Mean counts of T. gondii per 1000x field in peritoneal harvest [3, 5]: 2.4 counts per 1000x field
- Median counts of T. gondii per 1000x field in peritoneal harvest [3, 5]: 1.0 counts per 1000x field
